Laboratory results taken from US7371874B2, “6-Alkylamino-2-methyl-2′-(N-methyl substituted sulfonamido)methyl-2H-1-benzopyran derivative as anti-inflammatory inhibitor” (Korea Research Institute of Chemical Technology, priority 2005, dated 2008).

Tests used:
[1] = target: T1, 5-LO (Homo sapiens, UniProt P09917); test: 5-Lipoxygenase enzyme assay, bioassay using FOX reagent; assay type: biochemical; conditions: test compound 1 μM; lysate from 5-LO expressed insect cells; arachidonic acid 40 μM
T1 construct: made in house; host or cells: insect cells (crude lysate)
T1 sequence (P09917 1-674): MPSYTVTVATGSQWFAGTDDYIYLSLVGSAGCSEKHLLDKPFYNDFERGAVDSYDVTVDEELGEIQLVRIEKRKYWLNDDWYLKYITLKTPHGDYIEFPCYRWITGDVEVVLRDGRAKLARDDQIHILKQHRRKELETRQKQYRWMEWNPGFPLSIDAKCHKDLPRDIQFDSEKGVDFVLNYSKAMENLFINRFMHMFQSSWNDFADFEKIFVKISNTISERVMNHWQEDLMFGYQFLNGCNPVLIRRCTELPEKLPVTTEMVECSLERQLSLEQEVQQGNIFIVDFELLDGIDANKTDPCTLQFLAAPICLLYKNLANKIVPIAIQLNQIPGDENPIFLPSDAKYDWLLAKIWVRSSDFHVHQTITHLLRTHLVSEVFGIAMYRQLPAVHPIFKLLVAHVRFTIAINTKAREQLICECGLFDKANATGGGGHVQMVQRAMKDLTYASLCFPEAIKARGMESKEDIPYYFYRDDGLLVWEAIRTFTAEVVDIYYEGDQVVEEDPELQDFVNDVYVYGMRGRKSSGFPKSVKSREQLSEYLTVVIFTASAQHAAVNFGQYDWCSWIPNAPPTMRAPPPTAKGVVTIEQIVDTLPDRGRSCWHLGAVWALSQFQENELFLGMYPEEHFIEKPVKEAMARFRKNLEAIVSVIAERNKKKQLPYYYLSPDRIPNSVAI
Protocol: 1. 5-Lipoxygenase enzyme assay
1) Bioassay Using FOX Reagent
Each test compound (final concentration=1 μM) was added to a lysate (7 μg) obtained from 5-LO expressed insect cells and reaction was performed at room temperature for 3 minutes. Then, arachidonic acid (40 μM) was added as enzyme substrate and reaction was further performed at room temperature for 4 minutes. 100 μL of a FOX reagent (sulfuric acid 25 mM, xylenol orange 100 μM, FeSO4 100 μM, methanol/water=9:1) was added thereto and then, after 5 minutes, absorbance was measured at 575 nm.

[2] = test system: Mouse ear edema; test: In vivo bioassay (mouse ear edema model, arachidonic acid); design: species or system ICR mouse; conditions: oral in 0.5% methylcellulose 1 hour before arachidonic acid, compared with control; for Mouse ear edema model (in vivo assay): Thickness: ear thickness after 1 hour; for Mouse ear edema model (in vivo assay): MPO: myeloperoxidase activity of ear tissue
Protocol: 3. In Vivo Bioassay (Mouse Ear Edema Model)
The inside of the right ear of an ICR mouse (6 weeks old) was treated with 2 mg of arachidonic acid dissolved in 20 μL of acetone for 1 hour to induce an inflammation.
After 1 hour, the difference of thickness T (%) between the arachidonic acid-treated right ear and the non-treated left ear was measured with a microgauge.
Further, myeloperoxidase (MPO) activity was measured in order to measure the amount of neutrophil penetrated into the tissue as a primary marker for induced inflammation. The tissue obtained from the arachidonic acid-treated right ear was homogenized in a 50 mM phosphate buffer solution (pH 6.0) containing 0.5% hexadecyltrimethylammonium bromide (HTAB), centrifuged and then the MPO activity (MPO %) of the supernatant was measured.
To measure in vivo activity of each test compound, each compound was dissolved in 0.5% methylcellulose (10 mL/kg) and orally administered to a mouse 1 hour before treatment with arachidonic acid. Then, arachidonic acid was treated for 1 hour and the thickness of ear and MPO activity were measured. In vivo activity of each test compound was estimated by comparing the test result with that of a control which was treated only with arachidonic acid, without the test compound.

[3] = test system: LTB4 in Rat basophilic leukemia (RBL-1) cells; test: LTB4 cell-based assay (RBL-1 cells, A23187, ELISA); conditions: A23187 10 μM, LTB4 by ELISA
Protocol: Rat basophilic leukemia (RBL-1) cells were inoculated at a 24-well plate to a final concentration of 7.5×10^5 cells/well and incubated for 2 hours, so that they adhered to the bottom of the plate. […] The well plate was centrifuged at 1,500 g for 20 minutes to isolate the supernatant and then the amount of LTB4 of the supernatant was measured with ELISA analysis.

| inhibition at 1 µM [1] [%] | 5-LO enzyme assay (% inhibition, at 1 μM) [1] [%] | SMILES | Mouse ear edema model (in vivo assay): Thickness [2] | Mouse ear edema model (in vivo assay): MPO [2] | Cell-based assay (% inhibition, at 1 μM) [3] [%] |
| --- | --- | --- | --- | --- | --- |
|  | 47 | CN(CC1(C)C=Cc2cc(NCc3ccsc3)ccc2O1)S(=O)(=O)c1ccc(C(C)(C)C)cc1 (centres unmarked) [1-1-132] |  |  | 35 |
|  | 70 | COc1ccc(CNc2ccc3c(c2)C=CC(C)(CN(C)S(=O)(=O)c2ccc(Cl)cc2)O3)cc1 (centres unmarked) [1-1-217] |  |  | 56 |
|  | 87 | CN(CC1(C)C=Cc2cc(NCc3ccc(F)cc3)ccc2O1)S(=O)(=O)c1ccccc1 (centres unmarked) [1-1-10] | Thickness 60% | MPO 27% | 81 |
|  | 45 | COc1ccc(S(=O)(=O)N(C)CC2(C)C=Cc3cc(NCc4ccc(C)s4)ccc3O2)cc1 (centres unmarked) [1-1-40] |  |  | 38 |
|  | 80 | CN(CC1(C)C=Cc2cc(NCc3ccc(C#N)cc3)ccc2O1)S(=O)(=O)c1ccccc1 (centres unmarked) [1-1-7] |  |  | 71 |
|  | 61 | COc1ccc(CNc2ccc3c(c2)C=CC(C)(CN(C)S(=O)(=O)Cc2ccccc2)O3)cc1 (centres unmarked) [1-1-163] |  |  | 43 |
|  | 67 | COc1ccc(CNc2ccc3c(c2)C=CC(C)(CN(C)S(=O)(=O)c2ccc(F)cc2)O3)cc1 (centres unmarked) [1-1-244] |  |  | 41 |
|  | 73 | CCCS(=O)(=O)N(C)CC1(C)C=Cc2cc(NCc3ccc(OC)cc3)ccc2O1 (centres unmarked) [1-1-298] |  |  | 47 |

Second part, the molecule before the results:

| SMILES | inhibition at 1 µM [1] [%] | 5-LO enzyme assay (% inhibition, at 1 μM) [1] [%] | Mouse ear edema model (in vivo assay): Thickness [2] | Mouse ear edema model (in vivo assay): MPO [2] | Cell-based assay (% inhibition, at 1 μM) [3] [%] |
| --- | --- | --- | --- | --- | --- |
| CN(CC1(C)C=Cc2cc(NCc3ccsc3)ccc2O1)S(=O)(=O)c1ccccc1 (centres unmarked) [1-1-24] | 44 |  |  |  |  |
| CN(CC1(C)C=Cc2cc(NCc3ccncc3)ccc2O1)S(=O)(=O)Cc1ccccc1 (centres unmarked) [1-1-183] | 45 |  |  |  |  |
| CC(c1cc2ccccc2s1)N(O)C(N)=O (centres unmarked) [reference compound] |  |  | 67% | 38% |  |
| COc1ccc(CNc2ccc3c(c2)C=CC(C)(CN(C)S(=O)(=O)c2ccccc2)O3)cc1 (centres unmarked) [1-1-1] |  | 86 | Thickness 62% | MPO 34% | 82 |
| CN(CC1(C)C=Cc2cc(NCc3cccc(F)c3)ccc2O1)S(=O)(=O)c1ccccc1 (centres unmarked) [1-1-11] |  | 73 |  |  | 58 |
| COc1ccc(S(=O)(=O)N(C)CC2(C)C=Cc3cc(NCc4ccsc4)ccc3O2)cc1 (centres unmarked) [1-1-51] |  | 48 |  |  | 36 |
| Cc1ccc(CNc2ccc3c(c2)C=CC(C)(CN(C)S(=O)(=O)c2ccc(F)cc2)O3)s1 (centres unmarked) [1-1-256] |  | 79 |  |  | 63 |
| Cc1cc2c(cc1NCc1ccc(C#N)cc1)C=CC(C)(CN(C)S(=O)(=O)c1ccccc1)O2 (centres unmarked) [1-2-7] |  | 79 |  |  | 61 |
| CCOC(OCC)c1ccc(CNc2ccc3c(c2)C=CC(C)(CN(C)S(=O)(=O)c2ccc(C)cc2)O3)cc1 (centres unmarked) [1-1-103] |  | 63 |  |  | 52 |
| Cc1cc2c(cc1NCc1cccs1)C=CC(C)(CN(C)S(=O)(=O)c1ccccc1)O2 (centres unmarked) [1-2-23] |  | 80 |  |  | 74 |
